Source: ChEMBL document CHEMBL1122997, “Conjugates of catecholamines. 5. Synthesis and beta-adrenergic activity of N-(aminoalkyl)norepinephrine derivatives” (J Med Chem, 1985)

Biological target: Beta-adrenergic receptor (Mus musculus, UniProt P34971+P18762+P25962)
Assay: Effective concentration against 125I]iodocyanopindolol(ICYP) binding to beta adrenergic receptor was determined
Format: protein assay

| Compound | EC50 [µM] |
| --- | --- |
| NCCCNCC(O)c1ccc(O)c(O)c1 (configuration not stated) | 160 |
| CC(CCCCNC(=O)OCc1ccccc1)NCC(O)c1ccc(O)c(O)c1 (configuration not stated) | 0.049 |
